# Source: patent US20110071165A1, “Aza- and polyazanthranyl amides and their use as medicaments” (NOVARTIS AG, priority 2000, published 2011)
# Target: VEGFR II (KDR) kinase (Homo sapiens, UniProt P35968)
# Assay: Inhibition of KDR kinase activity (33P-ATP incorporation into poly-(Glu4Tyr), phosphocellulose filter)
# Assay type: biochemical
# Settings: 10 minutes at room temperature; substrate poly-(Glu4Tyr)
# Procedure: Stock solutions Stock solution A: 3 mM ATP in water pH 7.0 (−70° C.) Stock solution B: g-33P-ATP 1mCi/100 μl Stock solution C: poly-(Glu4Tyr) 10 mg/ml in water
# • Substrate solvent: 10 mM DTT, 10 mM manganese chloride 100 mM magnesium chloride • Enzyme solution: 120 mM Tris/HCl, pH 7,5, 10 μM sodium vanadium oxide
# 10 μl of substrate mix [10 μl vol ATP stock solution A+25 μCi g-33P-ATP (ca. 2.5 μl of stock solution B)+30 μl poly-(Glu4Tyr) stock solution C+1.21 ml substrate solvent], 10 μl inhibitor solution [substances corresponding to the dilutions, as a control 3% DMSO in substrate solvent] and 10 μl enzyme solution [11.25 μg enzyme stock solution (KDR or FLT-1 kinase) are diluted at 4° C. in 1.25 ml enzyme solution], are added to a tapering microtitre plate (without protein binding). The mixture is mixed thoroughly and incubated for 10 minutes at room temperature. Subsequently, 10 μl of stop solution (250 mM EDTA, pH 7.0) is added, mixed and 10 μl of the solution transferred to a P 81 phosphocellulose filter. Is is subsequently washed several times in 0.1 M phosphoric acid. The filter paper is dried, coated with MeltiLex and measured in a MicroBeta counter.
# The IC50 values are determined from the concentration of inhibitor required to inhibit the phosphate incorporation to 50% of the uninhibited incorporation after deducting the reference value (EDTA-stopped reaction).
# Chain of VEGFR II (KDR) kinase (P35968 20-1356, species assumed): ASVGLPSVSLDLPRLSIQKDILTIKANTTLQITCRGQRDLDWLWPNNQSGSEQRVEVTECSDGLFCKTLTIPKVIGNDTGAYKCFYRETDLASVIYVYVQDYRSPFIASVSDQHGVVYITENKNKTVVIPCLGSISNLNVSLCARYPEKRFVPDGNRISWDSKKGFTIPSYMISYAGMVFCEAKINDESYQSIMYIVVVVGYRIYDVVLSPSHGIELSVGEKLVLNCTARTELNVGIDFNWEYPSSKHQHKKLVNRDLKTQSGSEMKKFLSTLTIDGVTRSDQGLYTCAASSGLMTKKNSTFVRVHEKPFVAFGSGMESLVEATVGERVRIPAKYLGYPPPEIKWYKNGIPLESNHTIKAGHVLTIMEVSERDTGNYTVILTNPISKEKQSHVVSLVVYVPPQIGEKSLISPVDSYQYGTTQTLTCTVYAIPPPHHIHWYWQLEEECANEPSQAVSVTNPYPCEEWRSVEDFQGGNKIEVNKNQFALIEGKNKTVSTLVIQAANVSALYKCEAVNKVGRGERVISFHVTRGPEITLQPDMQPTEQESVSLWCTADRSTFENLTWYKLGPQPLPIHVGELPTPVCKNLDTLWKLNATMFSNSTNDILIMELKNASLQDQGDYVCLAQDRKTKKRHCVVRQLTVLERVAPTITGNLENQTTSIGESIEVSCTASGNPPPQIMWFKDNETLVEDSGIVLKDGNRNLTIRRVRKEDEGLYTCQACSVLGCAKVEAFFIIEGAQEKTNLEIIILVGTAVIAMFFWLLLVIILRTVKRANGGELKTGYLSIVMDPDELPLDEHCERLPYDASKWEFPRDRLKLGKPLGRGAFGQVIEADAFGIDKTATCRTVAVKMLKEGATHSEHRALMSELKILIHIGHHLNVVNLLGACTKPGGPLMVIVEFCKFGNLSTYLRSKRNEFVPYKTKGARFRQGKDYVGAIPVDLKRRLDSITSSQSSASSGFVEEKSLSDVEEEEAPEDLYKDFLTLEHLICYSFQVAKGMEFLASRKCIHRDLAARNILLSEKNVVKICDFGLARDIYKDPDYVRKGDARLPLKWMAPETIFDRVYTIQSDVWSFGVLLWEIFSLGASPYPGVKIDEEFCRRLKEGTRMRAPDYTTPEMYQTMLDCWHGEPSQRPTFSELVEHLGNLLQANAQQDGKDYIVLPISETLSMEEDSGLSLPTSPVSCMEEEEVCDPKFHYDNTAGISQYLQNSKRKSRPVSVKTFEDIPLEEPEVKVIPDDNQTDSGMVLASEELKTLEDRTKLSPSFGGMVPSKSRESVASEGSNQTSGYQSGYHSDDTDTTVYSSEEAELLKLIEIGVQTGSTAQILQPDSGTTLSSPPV
row,Structure (SMILES),IC50 [nM]
1,"O=C(Nc1cc2ccccc2cn1)c1cncnc1NCc1ccncc1 [Example 2.0, N-isoquinolin-3-yl-4-[(4-pyridyl)methyl]amino-pyrimidine-5-carboxylic acid amide]",100
2,O=C(Nc1cccc(C(F)(F)F)c1)c1cncnc1NCc1ccncc1 [Example 2.1],200
